The values below come from patent publication US9932327B2, “Rohitukine analogs as cyclin-dependent kinase inhibitors and a process for the preparation thereof” (COUNCIL OF SCIENTIFIC AND INDUSTRIAL RESEARCH, priority 2013, dated 2018).

One data set concerns CDK1/cyclin B. Conditions: Gray, N. et al. Curr. Med. Chem. 1999, 6, 859; cited from earlier work.
A further data set deals with HL-60 (Leukemia). Description: Cytotoxicity, MTT assay, HL-60. The data set is classed as cell-based. Conditions: Homo sapiens; for inhibition at 10 µM: read-out: Cell Growth Inhibition (%). Here is the method:
(§1) Compounds proposed in the present invention were evaluated for their cytotoxic effect against panel of six cancer cell line viz. HL-60 (Leukemia), PC-3 (Prostate), A-375 (Melanoma), MIAPaCa-2 (pancreatic), MCF-7 (Breast) and Caco-2 (Colon) using MTT assay. In each well of a 96-well plate, 3×10^3 cells were grown in 100 μL of medium. After 24 h, each test molecules were added to achieve a final concentration of 10 to 0.01 μmol/L, respectively. After 48 h of treatment, 20 μL of 2.5 mg/mL MTT (Organics Research, Inc.) solution in phosphate buffer saline was added to each well. After 48 h, supernatant was removed and formazan crystals were dissolved in 200 μL of DMSO. Absorbance was then measured at 570 nm using an absorbance plate reader (Bio-Rad Microplate Reader). Data are expressed as the percentage of viable cells in treated relative to non-treated conditions.

For a further data set, the system named is PC-3 (Prostate). Kind of data set: Cytotoxicity, MTT assay, PC-3. In kind it is cell-based. The note with it: for inhibition at 10 µM: read-out: Cell Growth Inhibition (%). As for the experimental part: as §1
In general terms: Tetrazolium assays rely on reduction of a dye to a coloured formazan, in cell work by metabolically active cells.

A further data set concerns A-375 (Melanoma). Description: Cytotoxicity, MTT assay, A-375. The data set is classed as cell-based. Conditions: Homo sapiens; for inhibition at 10 µM: read-out: Cell Growth Inhibition (%). Here is the method:
as §1

For another data set, the system named is MCF-7 (Breast). Kind of data set: Cytotoxicity, MTT assay, MCF-7. In kind it is cell-based. The note with it: Homo sapiens; for IC50: MCF7; for inhibition at 10 µM: MCF7, 10 μM, read-out: Cell Growth Inhibition (%). As for the experimental part:
as §1

In a further data set the test system is Caco-2 (Colon). Description: Cytotoxicity, MTT assay, Caco-2. The note with it: Homo sapiens; for inhibition at 10 µM: read-out: Cell Growth Inhibition (%). The data set is classed as cell-based. Here is the method:
as §1

A further data set deals with CDK-2/cyclin A (Homo sapiens (Human), UniProt P24941). Kind of data set: Inhibition of CDK-2/cyclin A. The data set is classed as biochemical.
Data set [1] can be described thus: Thermodynamic equilibrium solubility. The data set is classed as physicochemical. The note with it: 25 °C, thermodynamic from solid. Here is the method: The compounds were first dissolved in methanol to prepare stock solutions (100 and 1000 μg/mL). Different concentrations of stock solutions were pipetted into the 96-well plates and the solvent was evaporated to ensure that solid drug was present in the beginning of the experiment. […] The plates were kept overnight for equilibration of drug in medium. Later, the plates were centrifuged at 3000 rpm for 15 min (Jouan centrifuge BR4i). Supernatant (50 μl) was pipetted into UV 96-well plates (Corning® 96 Well Clear Flat Bottom UV-Transparent Microplate) for analyses with plate reader (SpectraMax Plus384) at λmax of 350 nm. The analyses were performed in triplicate for each compound. The solubility curve of concentration (μg/mL) vs absorbance was plotted to find out saturation point and the corresponding concentration was noted (Heikkilä, T. et al. Int. J. Pharm. 2011, 405, 132).

The target of another data set is CDK-9/Cyclin T1 (Homo sapiens (Human), UniProt P50750). Description: Inhibition of CDK-9/cyclin T1. The note with it: IC50 (nM) CDK-9/T1.
CDK-9/Cyclin T1, sequence (P50750 whole entry): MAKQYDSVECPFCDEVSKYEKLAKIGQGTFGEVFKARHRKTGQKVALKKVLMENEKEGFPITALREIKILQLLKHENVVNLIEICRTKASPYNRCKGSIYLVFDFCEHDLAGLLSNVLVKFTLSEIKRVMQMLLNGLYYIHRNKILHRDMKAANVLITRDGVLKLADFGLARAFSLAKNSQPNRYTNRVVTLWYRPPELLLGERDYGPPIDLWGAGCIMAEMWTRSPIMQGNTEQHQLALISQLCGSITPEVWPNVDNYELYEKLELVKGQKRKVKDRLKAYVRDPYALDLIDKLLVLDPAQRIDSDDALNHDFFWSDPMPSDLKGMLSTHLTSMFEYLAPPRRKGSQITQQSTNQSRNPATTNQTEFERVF
CDK-9/Cyclin T1, sequence (O60563 whole entry partner): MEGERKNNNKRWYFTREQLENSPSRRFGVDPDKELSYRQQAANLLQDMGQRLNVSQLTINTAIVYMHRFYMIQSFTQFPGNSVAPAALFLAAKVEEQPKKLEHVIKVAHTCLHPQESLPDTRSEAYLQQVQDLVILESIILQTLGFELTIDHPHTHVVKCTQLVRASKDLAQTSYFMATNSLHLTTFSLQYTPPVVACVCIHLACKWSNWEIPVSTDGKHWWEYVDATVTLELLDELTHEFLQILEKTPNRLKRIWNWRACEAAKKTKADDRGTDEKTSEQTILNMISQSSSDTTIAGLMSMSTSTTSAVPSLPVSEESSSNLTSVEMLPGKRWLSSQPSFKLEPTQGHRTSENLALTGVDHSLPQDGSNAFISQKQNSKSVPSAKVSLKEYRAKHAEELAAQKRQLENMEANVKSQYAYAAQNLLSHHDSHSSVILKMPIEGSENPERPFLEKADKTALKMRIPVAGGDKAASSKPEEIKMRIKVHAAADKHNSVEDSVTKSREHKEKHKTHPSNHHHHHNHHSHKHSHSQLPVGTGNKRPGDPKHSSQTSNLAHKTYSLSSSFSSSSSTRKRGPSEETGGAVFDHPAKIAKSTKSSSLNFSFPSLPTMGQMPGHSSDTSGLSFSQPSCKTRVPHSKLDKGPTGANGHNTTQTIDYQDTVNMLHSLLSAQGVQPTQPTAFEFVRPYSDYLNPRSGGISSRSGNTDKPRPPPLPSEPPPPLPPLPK
For data set [2], the system named is Ehrlich solid tumor (EAC cells). Description: In vivo anticancer activity in Ehrlich solid tumor mice model. Details: species or system Swiss mice. As for the experimental part:
Ehrlich ascites carcinoma (EAC) cells were collected from the peritoneal cavity of the swiss mice harbouring 8-10 days old ascitic tumor. 1×10^7 EAC cells were injected intramuscularly in right thigh of 31 Swiss male mice selected for the experiment on day 0. The next day, animals were randomized and divided into four groups. Three treatment groups contained 7 animals each and one control group contained 10 animals. Treatment was given as follows:
Group I: Compound 33 (50 mg/kg i/p) from day 1-9.
Group II: Compound 33 (70 mg/kg i/p) from day 1-9.
The third treatment group was treated with 5-fluorouracil (22 mg/kg, i.p) from day 1-9 and it served as positive control. The control group was similarly administered normal saline (0.2 ml, i.p.) from day 1-9. On day 9 & 13, tumor bearing thigh of each animal was shaved and longest and shortest diameters of the tumor were measured with the help of vernier caliper. Tumor weight of each animal was calculated using the following formula.
The percent tumor growth inhibition was calculated on day 13 by comparing the average values of treated groups with that of control group. Tumor growth in saline treated control animals was taken to be 100%.

Another data set has as its system MIAPaCa-2 (pancreatic). Kind of data set: Cytotoxicity, MTT assay, MIAPaCa-2. The note with it: Homo sapiens, MIA PaCa-2, read-out: Cell Growth Inhibition (%). In kind it is cell-based. Here is the method:
as §1

Setting [3] is: water, 25±1° C., read-out: Solubility in μg/mL, Water.
The mark [4] stands for this setting: phosphate buffer saline (PBS), aqueous buffer, read-out: Solubility in μg/mL, PBS.
[5] abbreviates: simulated gastric fluid (SGF), simulated gastric fluid, read-out: Solubility in μg/mL, SGF.
The mark [6] stands for this setting: simulated intestinal fluid (SIF), fassgf or other biorelevant, read-out: Solubility in μg/mL, SIF.
Setting [7] is: 22 mg/kg i/p day 1-9, positive control.

Molecules are shown by their SMILES. Values after ≈ are worked out from the molar mass of the structure shown. Like-named read-outs stand apart in the source and are kept apart here. Bounds are passed on as bounds.

For orientation: IC50 means the concentration needed to halve the response being measured. For orientation: inhibition means the drop in the measured response relative to a control, in per cent.

Experimental for CDK-9/Cyclin T1: (50-1000 cpm/pmole) and incubated for 30 mM at room temperature. Assays were stopped by addition of 5 μl of 0.5 M (3%) orthophosphoric acid and then harvested onto P81 Unifilter plates with a wash buffer of 50 mM orthophosphoric acid.

As for `CN(C)c1ncnc2nc[nH]c12` [dimethylaminopurine], the IC50 with CDK1/cyclin B is 120 µM.
For `CN1CCC(c2c(O)cc(O)c3c(=O)cc(/C=C/c4c(F)c(F)c(F)c(F)c4F)oc23)C(O)C1` (centres unmarked) [Compound 34, 2-(2,3,4,5,6-pentafluorostyryl)-5,7-dihydroxy-8-(3-hydroxy-1-methylpiperidin-4-yl)-4H-chromen-4-one], the IC50 stood at 3 µM in the data set with HL-60 (Leukemia); 30 µM with PC-3 (Prostate); 8 µM in the data set on A-375 (Melanoma); 4 µM in the data set with MCF-7 (Breast); 7 µM with Caco-2 (Colon); 608 nM against CDK-2/cyclin A. The compound further returned an IC50 against CDK-9/Cyclin T1 of 12 nM. Also, the solubility is 5 µg/mL (≈ 10.3 µM) in [1] (setting [3]), 10 µg/mL (≈ 20.7 µM) in data set [1] (setting [4]), 80 µg/mL (≈ 165 µM) in [1] (setting [5]) and 20 µg/mL (≈ 41.4 µM) in [1] (setting [6]).
In the case of `CN1CCC(c2c(O)cc(O)c3c(=O)cc(/C=C/c4c(Cl)cccc4Cl)oc23)C(O)C1` (centres unmarked) [Compound 33, 2-(2,6-dichlorostyryl)-5,7-dihydroxy-8-(3-hydroxy-1-methylpiperidin-4-yl)-4H-chromen-4-one], the IC50 in the data set on HL-60 (Leukemia) was determined as 0.9 µM; in the data set with PC-3 (Prostate), 41 µM; in the data set with A-375 (Melanoma), 8 µM; in the data set with MCF-7 (Breast) it was 4 µM; in the data set on Caco-2 (Colon), 7 µM; on CDK-2/cyclin A, 16 nM. The same compound had an IC50 on CDK-9/Cyclin T1 of 2 nM. In addition, the “Day 13 % Tumor Growth Inhibition” value in data set [2] (50 mg/kg i/p day 1-9) is listed as 33.11%; in [2] (70 mg/kg i/p day 1-9), 37.65%. For the same compound, the “Day 13 Av. Tumor weights” value in data set [2] (50 mg/kg i/p day 1-9) turned out to be 989.12 mg; in data set [2] (70 mg/kg i/p day 1-9) it was 922.0 mg. Also, the Mortality in data set [2] (50 mg/kg i/p day 1-9) and in data set [2] (70 mg/kg i/p day 1-9) was 0/7 in each case. Further, the solubility was 5 µg/mL (≈ 10.8 µM) in [1] (setting [3]), 5 µg/mL (≈ 10.8 µM) in [1] (setting [4]), 40 µg/mL (≈ 86.5 µM) in data set [1] (setting [5]) and 20 µg/mL (≈ 43.3 µM) in [1] (setting [6]).
As to `CN1CCC(c2c(O)cc(O)c3c(=O)cc(/C=C/c4c(Cl)cccc4Cl)oc23)C(O)C1.Cl` (centres unmarked) [Hydrochloride salt of 33, 2-(2,6-dichlorostyryl)-5,7-dihydroxy-8-(3-hydroxy-1-methylpiperidin-4-yl)-4H-chromen-4-one hydrochloride], the solubility in [1] (setting [3]) is more than 1500 µg/mL; in data set [1] (setting [4]), 40 µg/mL; in data set [1] (setting [5]), 40 µg/mL; in data set [1] (setting [6]) it was 10 µg/mL.
As for `Cc1oc2c(C3CCN(C)CC3O)c(O)cc(O)c2c(=O)c1C(O)c1ccccc1Br` (centres unmarked) [Compound 15, 3-((2-Bromophenyl)(hydroxy)methyl)-5,7-dihydroxy-8-(3-hydroxy-1-methylpiperidin-4-yl)-2-methyl-4H-chromen-4-one], the inhibition at 10 µM is 52% in the data set with HL-60 (Leukemia); 44.5% in the data set on PC-3 (Prostate); 22.4% in the data set on A-375 (Melanoma); 10.1% in the data set with MIAPaCa-2 (pancreatic); 20.6% with MCF-7 (Breast); 6.62% in the data set with Caco-2 (Colon).
With `CN1CCC(c2c(O)cc(O)c3c(=O)cc(/C=C/c4c(F)c(F)c(F)c(F)c4F)oc23)C(O)C1.Cl` (centres unmarked) [Hydrochloride salt of 34, 2-(2,3,4,5,6-pentafluorostyryl)-5,7-dihydroxy-8-(3-hydroxy-1-methylpiperidin-4-yl)-4H-chromen-4-one hydrochloride], the solubility in [1] (setting [3]) is more than 1500 µg/mL; in data set [1] (setting [4]), 40 µg/mL; in [1] (setting [5]), 80 µg/mL; in [1] (setting [6]), 40 µg/mL.
With `Cc1cc(=O)c2c(O)cc(OCc3ccc(Br)cc3)c(C3CCN(C)CC3O)c2o1` (centres unmarked) [Compound 4, 7-(4-Bromobenzyloxy)-5-hydroxy-8-(3-hydroxy-1-methylpiperidin-4-yl)-2-methyl-4H-chromen-4-one], the inhibition at 10 µM came to 26.9% with HL-60 (Leukemia); 17.1% in the data set with PC-3 (Prostate); 45.5% in the data set on A-375 (Melanoma); 13.2% in the data set with MIAPaCa-2 (pancreatic); 14% in the data set on MCF-7 (Breast); 13% in the data set with Caco-2 (Colon).
As to `CN1CCC(c2c(O)cc(O)c3c(=O)cc(/C=C/c4cccc(F)c4)oc23)C(O)C1` (centres unmarked) [Compound 35, 2-(3-fluorostyryl)-5,7-dihydroxy-8-(3-hydroxy-1-methylpiperidin-4-yl)-4H-chromen-4-one], the IC50 at CDK-2/cyclin A amounted to 466 nM; against CDK-9/Cyclin T1 it was 30 nM.
`Cc1cc(=O)c2c(O)cc(OC/C=C/c3ccccc3)c(C3CCN(C)CC3O)c2o1` (centres unmarked) [Compound 7, 7-(Cinnamyloxy)-5-hydroxy-8-(3-hydroxy-1-methylpiperidin-4-yl)-2-methyl-4H-chromen-4-one]: the inhibition at 10 µM in the data set with HL-60 (Leukemia) turned out to be 21%; in the data set on PC-3 (Prostate) it was 18.3%; in the data set on A-375 (Melanoma), 21.8%; in the data set on MIAPaCa-2 (pancreatic), 11.2%; in the data set on MCF-7 (Breast), 7.02%; in the data set on Caco-2 (Colon), 9.49%.
`O=c1[nH]cc(F)c(=O)[nH]1` [Compound 5-FU, 5-fluorouracil, reference compound]: in data set [2] (setting [7]), the “Day 13 % Tumor Growth Inhibition” value is on record as 58.50%, the “Day 13 Av. Tumor weights” value is on record as 613.71 mg and the Mortality is listed as 0/7.
Regarding `CN1CCC(c2c(O)cc(O)c3c(=O)cc(/C=C/c4ccccc4F)oc23)C(O)C1` (centres unmarked) [Compound 30, 2-(2-Fluorostyryl)-5,7-dihydroxy-8-(3-hydroxy-1-methylpiperidin-4-yl)-4H-chromen-4-one], the IC50 in the data set with HL-60 (Leukemia) was 8 µM; in the data set on PC-3 (Prostate), 7 µM; in the data set with A-375 (Melanoma) it was 7 µM; in the data set on MCF-7 (Breast), 3 µM; in the data set with Caco-2 (Colon) it was 8 µM. Also, the inhibition at 10 µM in the data set with HL-60 (Leukemia) was determined as 80.5%; in the data set on PC-3 (Prostate), 72.2%; in the data set on A-375 (Melanoma), 54.1%; with MIAPaCa-2 (pancreatic), 21.3%; with MCF-7 (Breast), 81.1%; with Caco-2 (Colon), 51%.
For `Cc1cc(=O)c2c(O)cc(O)c(C3CCN(C)CC3O)c2o1` (centres unmarked) [Compound 1, 5,7-dihydroxy-8-(3-hydroxy-1-methylpiperidin-4-yl)-2-methyl-4H-chromen-4-one, reference compound], the IC50 is 6 µM in the data set on HL-60 (Leukemia), more than 10000 nM against CDK-2/cyclin A and 550 nM on CDK-9/Cyclin T1. The inhibition at 10 µM came to 83.3% in the data set on HL-60 (Leukemia); 32.9% with PC-3 (Prostate); 41.2% in the data set on A-375 (Melanoma); 1.46% with MIAPaCa-2 (pancreatic); 15.4% with MCF-7 (Breast); 11.9% in the data set on Caco-2 (Colon).
